The values below come from publication PMC4311994, “Identification, Expression Profiling and Fluorescence-Based Binding Assays of a Chemosensory Protein Gene from the Western Flower Thrips, Frankliniella occidentalis” (PLoS ONE, 2015).

Read-outs that look alike come from different tables or passages of the source.

Test [1] has as its target recombinant FoccCSP protein (Frankliniella occidentalis, UniProt A0A0C5AYL1). Description: biochemical. As to conditions: for Kd: Dissociation constant (KD), calculated from IC50 with Ki = [IC50]/(1+[1-NPN]/K1-NPN). Type of test: binding. How it is done:
(§1) Fluorescence binding assays were performed using a 970CRT spectrofluorophotometer (Lengguang, Shanghai, China) at 25°C with a 1 cm lightpath quartz cuvette and 10 nm slit width for excitation and emission. FoccCSP protein was diluted from a 2 μM stock solution with 50 mM Tris-HCl buffer (pH 7.4). The fluorescent probe N-phenyl-1-naphthylamine (1-NPN) was diluted from a 1 mM stock solution with methanol. The potential ligands were prepared in a similar manner as 1-NPN.
To measure the affinity of the 1-NPN fluorescent ligand for FoccCSP, the 2 μM protein solution prepared above was titrated with 1 mM 1-NPN to a final concentration between 2 and 20 μM. The affinities of the other potential ligands were measured using 1-NPN as a fluorescent reporter in competitive binding assays using 2 μM solutions of 1-NPN and FoccCSP and the addition of ligands to concentrations of 2–300 μM.
To determine the 1-NPN and FoccCSP binding constants, the intensity values corresponding to the maximum fluorescence emissions were plotted against the concentration of free ligand. The bound ligand was evaluated using the fluorescence intensity values assuming that the protein was 100% active and using a saturation stoichiometry of 1:1 protein:ligand. The curves were linearized using the Scatchard Plot program. The dissociation constants for the competitors were calculated from the corresponding IC50 values using the equation K i = [IC 50]/(1+[1-NPN]/K 1-NPN), where [1-NPN] is the free concentration of 1-NPN and K 1-NPN is the dissociation constant of the FoccCSP/1-NPN complex.

Test [2] concerns the target T1, FoccCSP protein (Frankliniella occidentalis, UniProt A0A0C5AYL1).
T1 sequence (A0A0C5AYL1 20-128): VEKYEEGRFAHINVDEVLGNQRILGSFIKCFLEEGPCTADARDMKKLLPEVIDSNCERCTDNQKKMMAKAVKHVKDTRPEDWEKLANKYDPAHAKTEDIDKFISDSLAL
Description: Binding of the fluorescent probe 1-NPN to FoccCSP (titration, Scatchard plot). The note with it: 2 μM FoccCSP titrated with 1-NPN to 2–20 μM, read-out: FoccCSP/1-NPN complex dissociation constant. The procedure: as §1
The intrinsic fluorescence of tryptophan was measured using a 2 μM FoccCSP protein solution. The excitation wavelength was 285 nm, and the emission spectrum was recorded between 290 and 530 nm. Quenching of the intrinsic fluorescence was measured in the presence of 2, 4, 6, 8, 10, 12, 14, 16, 18, and 20 μM 1-NPN under the same conditions.
To measure the affinity of the 1-NPN fluorescent ligand for FoccCSP, the 2 μM protein solution prepared above was titrated with 1 mM 1-NPN to a final concentration between 2 and 20 μM. […]
To determine the 1-NPN and FoccCSP binding constants, the intensity values corresponding to the maximum fluorescence emissions were plotted against the concentration of free ligand. The bound ligand was evaluated using the fluorescence intensity values assuming that the protein was 100% active and using a saturation stoichiometry of 1:1 protein:ligand. […]

[3] abbreviates: competitive displacement of 1-NPN, 2 μM 1-NPN and 2 μM FoccCSP, ligands 2–300 μM, 50 mM Tris-HCl pH 7.4, 25°C, read-out: IC50.

Consider 3- phenyl aldehyde, for which the IC50 (in general, the concentration that inhibits the measured activity by half) in test [1] (setting [3]) worked out at 108 µM.
As for `c1ccc(Nc2cccc3ccccc23)cc1` [1-NPN, N-phenyl-1-naphthylamine], in test [2], the Kd turned out to be 11.8 µM.
For `COc1ccc(C=O)cc1` [Anisic aldehyde], the IC50 in test [1] (setting [3]) is 11.4 µM.
As for `O=Cc1ccccc1` [Benzaldehyde], the IC50 in test [1] was determined as 52.5 µM. In addition, the Kd in test [1] (2 μM 1-NPN and 2 μM FoccCSP) was 48.4 µM.
As to `CC(=O)OCc1ccccc1` [Benzyl acetate], the IC50 in test [1] came out at 98.2 µM. Further, in test [1] (2 μM 1-NPN and 2 μM FoccCSP), the Kd is 90.5 µM.
Take `OCc1ccccc1` [Benzyl alcohol]: the IC50 in test [1] was determined as 119 µM. In addition, the Kd in test [1] (2 μM 1-NPN and 2 μM FoccCSP) was 109 µM.
With `CC(C)=CCC[C@@H](C)CC=O` [Citronellal], the 50% inhibitory concentration (IC50) in test [1] (setting [3]) was 76.1 µM.
As to `CC(C)=CCCC(C)CCO` (centres unmarked) [Citronellol], the IC50 in test [1] was 75.8 µM. Further, the Kd in test [1] (2 μM 1-NPN and 2 μM FoccCSP) was 69.9 µM.
For `CCc1ccccc1` [Ethyl benzene], in that order: 63.4 µM and 58.5 µM.
On to `CCOC(=O)c1cccnc1` [Ethyl nicotinate], for which the IC50 in test [1] stood at 52 µM. In addition, in test [1] (2 μM 1-NPN and 2 μM FoccCSP), the Kd was 47.9 µM.
For `CC12CCC(CC1)C(C)(C)O2` [Eucalyptol], in that order: 92.4 µM and 85.2 µM.
Take `C=CCc1ccc(O)c(OC)c1` [Eugenol]: the IC50 in test [1] came to 96.4 µM. The Kd in test [1] (2 μM 1-NPN and 2 μM FoccCSP) was 88.9 µM.
For `CC(C)=CCC/C(C)=C/CO` [Geraniol], in that order: 15.3 µM and 14.1 µM.
In the case of `CCCCCC` [Hexane], the IC50 in test [1] turned out to be 94.2 µM. Further, the Kd in test [1] (2 μM 1-NPN and 2 μM FoccCSP) is 86.9 µM.
For `C=CC(C)(O)CCC=C(C)C` (centres unmarked) [Linalool], in that order: 85.6 µM and 79 µM.
Regarding `COC(=O)c1ccncc1` [Methyl isonicotinate], in test [1] (setting [3]), the IC50 amounted to 52 µM.
As for `COC(=O)c1ccccc1O` [Methyl salicylate], in test [1], the IC50 was found to be 35.2 µM. Moreover, the Kd in test [1] (2 μM 1-NPN and 2 μM FoccCSP) is 32.5 µM.
For `CCCCCCCCC=O` [Pelargonic aldehyde], the IC50 in test [1] (setting [3]) was determined as 79 µM.
As for `O=Cc1ccccc1O` [Salicylaldehyde], in test [1] (ligands up to 300 μM), the “Displacement of 1-NPN from the FoccCSP/1-NPN complex, fluorescence intensity decreased to 50% of the initial value” was “unable to displace the fluorescent 1-NPN probe”.
As for Neroli, the IC50 in test [1] (setting [3]) was 98.9 µM.
